Holding throughout (assay): DTP human tumour cell line panel, 48 h
For test [1], the system named is IGROV1 ovarian.
In test [2] the test system is DLD-1 colon.
The subject of test [3] is NCI-H226 lung.
Test [4] has as its system SK-MEL-28 melanoma.
Test [5] relates to SF-295 CNS.
In test [6] the test system is HCT-116 colon.
Test [7] concerns SW-620 colon.
Test [8] has as its system LXFL 529 NSCLC.
In test [9] the test system is NCI-H460 lung.
Test [10] concerns MDA-MB-435.

Structures are written as SMILES.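 Assay format: 96-well plates, 48-hour exposure. GI50 = concentration required for 50% inhibition of growth. Definition used: TGI = concentration required for complete inhibition of growth.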

In the case of `O=C1CCCC(O)=C1SC1=C(O)CCCC1=O`, the TGI in test [1], in [2], in [3], in test [4], in test [5] and in test [6] was greater than 100 µM throughout. Also, in test [7], the TGI (in general, the concentration at which net growth stops) was greater than 100 µM.
As for `CCC(C)c1cccc(C)c1NC(=O)C(=O)Cc1nc2ccccc2s1` (stereo not drawn), the TGI in test [1], in [8], in test [9], in test [2], in test [4] and in test [5] was greater than 100 µM in each case. Further, the TGI in test [6] and in test [7] was greater than 100 µM throughout.
Regarding `O=C1CCSC(=S)N1c1ccc(Br)c(Cl)c1`, the TGI in test [1] amounted to 49.5 µM; in test [9] it was 62.5 µM; in [3], 63.9 µM; in test [4], 34.9 µM; in test [5] it was 73.1 µM; in [10], 65.7 µM. In addition, the TGI in [6] is greater than 100 µM; in test [7], 91.6 µM.
As for `O=C(Oc1ccc2c(-c3ccccc3)c(C(=O)Nc3ccc(Cl)cc3)c(=O)oc2c1)c1ccccc1`, the TGI in test [1], in test [9], in test [2], in [3], in [4] and in test [5] was greater than 100 µM in each case. The TGI in test [6] and in test [7] was greater than 100 µM in each case.
In the case of `O=C(Nc1ccc(Oc2ccc(NC(=O)Nc3ccc([N+](=O)[O-])cc3)cc2)cc1)Nc1ccc([N+](=O)[O-])cc1`, the GI50 (commonly the concentration at which growth is held to half of that of the control) was 1.9 µM in test [1]; 1.74 µM in [9]; 2.9 µM in test [3]; 3.28 µM in test [4]; 1.17 µM in [5]; 2.16 µM in test [10]. Besides, the GI50 in test [6] is 1.17 µM; in test [7], 2.51 µM. For the same compound, the TGI was determined as 4.71 µM in test [1]; 6.61 µM in test [9]; 27.8 µM in [3]; 43.2 µM in [4]; 17.9 µM in test [5]; 8.65 µM in test [10]. Moreover, the TGI was 9.19 µM in [6] and greater than 56.3 µM in [7].
In the case of `COc1ccc2c(c1)[nH]c(=O)c1c3cc(OC)c(OC)cc3cn21`, the GI50 was less than 0.0178 µM in test [1]; less than 0.01 µM in test [9]; 0.0701 µM in [3]; less than 0.01 µM in test [4]; less than 0.01 µM in [5]; less than 0.01 µM in test [10]. For the same compound, the GI50 in test [6] and in [7] was less than 0.01 µM throughout. The TGI was 0.233 µM in test [1]; 1.04 µM in test [9]; 24.4 µM in test [3]; 18.2 µM in [4]; 0.409 µM in test [5]; less than 0.01 µM in test [10]. For the same compound, the concentration for total growth inhibition (TGI) in test [6] is 1.19 µM; in [7], 1.52 µM.
For the compound `O=C(Cc1csc2nc(-c3ccc(Br)cc3)cn12)N/N=C/c1ccc(Cl)cc1Cl`, the GI50 was 16 µM in test [1]; greater than 100 µM in test [9]; 31.8 µM in [3]; greater than 100 µM in test [4]; 34.7 µM in [5]; 31.4 µM in [10]. The GI50 was 17.1 µM in [6] and 23 µM in [7]. Moreover, the TGI in test [1] is 45.6 µM; in test [9], greater than 100 µM; in test [3] it was 92.2 µM; in test [4] it was greater than 100 µM; in [5], greater than 100 µM; in [10], greater than 100 µM. The TGI was 36.8 µM in [6] and 60.2 µM in test [7].
As for `CCCCCCCCNC(C)C(O)c1ccc(SC(C)C)cc1` (stereo not drawn), the GI50 in test [1] is 1.81 µM; in test [9] it was 1.85 µM; in [3], 1.81 µM; in test [4], 1.83 µM; in test [5], 1.68 µM; in [10], 1.69 µM. For the same compound, the GI50 in test [6] is 1.59 µM; in test [7], 1.74 µM. Moreover, the TGI in [1] worked out at 3.38 µM; in [9], 3.56 µM; in [3] it was 3.85 µM; in test [4] it was 3.27 µM; in test [5], 3.2 µM; in test [10] it was 3.21 µM. Moreover, the values for the TGI in [6] and in [7] were 3.11 µM and 3.29 µM, respectively.
In the case of `O=C1NC(=O)[C@@H](c2c[nH]c3ccccc23)[C@@H]1c1c[nH]c2ccccc12`, the GI50 in test [1], in test [9], in test [3], in test [4], in test [5] and in test [10] was greater than 25 µM each time. Also, the GI50 in test [6] and in test [7] was greater than 25 µM throughout. Besides, the TGI in [1], in test [9], in test [3], in test [4], in test [5] and in [10] was greater than 25 µM throughout. Also, the TGI in [6] and in test [7] was greater than 25 µM each time.
In the case of `O=C(c1nn(-c2ccc(Cl)cc2)cc1O)n1nc(C(F)(F)F)cc1-c1ccccc1`, the GI50 was 0.921 µM in test [1]; 0.767 µM in test [9]; 2.17 µM in test [3]; 6.56 µM in [4]; 0.478 µM in test [5]; 3.38 µM in [10]. For the same compound, the GI50 in test [6] was 1.91 µM; in test [7], 4.51 µM. For the same compound, the concentration for total growth inhibition (TGI) was greater than 100 µM in test [1]; greater than 59.3 µM in test [9]; greater than 40.7 µM in [3]; greater than 100 µM in test [4]; greater than 65.6 µM in [5]; greater than 100 µM in test [10]. The TGI in test [6] and in [7] was greater than 100 µM in each case.
As for `O=C(Cn1c(C(=O)c2ccc(Cl)cc2)nc(-c2ccccc2)c1-c1ccccc1)c1ccc(Cl)cc1`, the GI50 in test [1], in test [9], in test [3], in test [4], in test [5] and in test [10] was greater than 100 µM each time. Besides, the GI50 in test [6] and in test [7] was greater than 100 µM in each case. Also, the TGI in [1], in [9], in [3], in test [4], in test [5] and in [10] was greater than 100 µM throughout. Besides, the TGI in test [6] and in [7] was greater than 100 µM throughout.

These data come from PubChem BioAssay (NCI).
